Data set [1] has as its system 5-hydroxytryptamine-induced constriction. Nature of the data set: Inhibition of 5-hydroxytryptamine induced bronchoconstriction in the anaesthetised, artificially respired guinea pig (Konzett-Rossler preparation). Type of data set: in vivo. The note with it: Cavia porcellus, iv, read-out: ID50 against 5-hydroxytryptamine-induced constriction. Here is the method:
(§1) 1. The compounds were examined for their ability to inhibit 5-hydroxytryptamine or histamine induced bronchoconstriction in the anaesthetised, artificially respired guinea pig (Konzett-Rossler preparation). The compounds were administered intravenously.

Data set [2] relates to heart fibrillation induced by chloroform. Nature of the data set: Anti-arrythmic activity: prevention of heart fibrillation in mice exposed to chloroform. Type of data set: in vivo. The note with it: 100 mg/kg intraperitoneally, group of 3 mice. The text has this: The compounds were examined for anti-arrythmic activity by determining their ability to prevent heart fibrillation in mice exposed to chloroform.

A short description of a further data set: in vivo. The arrangement: species or system mice. The note with it: mouse. Here is the method: For example, Compound 17 was not toxic in mice at doses up to 300 mg/kg, orally, or at doses up to 100 mg/kg, intraperitoneally, whereas Compound 21 was not toxic at doses up to 900 mg/kg, orally, in mice.
In data set [3] the test system is bronchoconstriction induced by an histamine aerosol. Nature of the data set: Protection of conscious guinea pigs against bronchoconstriction induced by an histamine aerosol (Herxheimer test). Type of data set: in vivo, guinea pig. Also on record: key to Aerosol route Activity (class symbol) / Oral route Activity (class symbol): A: active. The note with it: mean of several experiments; for minimal effective dose: Cavia porcellus, read-out: Oral route Activity: dose at which active; for minimal effective dose / Oral route Activity (class symbol): oral route. Here is the method:
2. the compounds were also examined for their ability to protect conscious guinea pigs against bronchoconstriction induced by an histamine aerosol (Herxheimer test). In these experiments the compounds were administered by aerosol or by oral administration. The results are shown in Table B. The results are the mean of several experiments.

Data set [4] has as its system platelet aggregation induced by collagen in human platelet rich plasma. Nature of the data set: Inhibition of collagen-induced platelet aggregation in vitro in human platelet rich plasma. Type of data set: cell-based. The note with it: for inhibition at 100 µM: collagen-induced. The text has this: The compounds were examined for their ability to inhibit platelet aggregation induced in vitro by collagen in human platelet rich plasma.

Data set [5] has as its system pentagastrin-stimulated gastric acid secretion. Nature of the data set: Inhibition of pentagastrin-stimulated gastric acid secretion in the anaesthetised, perfused rat stomach preparation (Ghosh and Schild preparation). Type of data set: in vivo. The settings on record: i.v. Here is the method:
The compounds were examined for their ability to inhibit pentagastrin-stimulated gastric acid secretion in the anaesthetised, perfused rat stomach preparation (Ghosh and Schild preparation). The compounds were administered intra-venously.

The test system of data set [6] is indomethacin induced gastric damage. Nature of the data set: Anti-ulcer activity: inhibition of indomethacin induced gastric damage in the rat. Type of data set: in vivo. The note with it: 100 mg/kg orally, 30 minutes prior to 15 mg/kg indomethacin s.c., groups of 7 rats, score scale 1-9. Here is the method:
Anti-ulcer activity was assessed by the inhibition of indomethacin induced gastric damage in the rat according to the method of Eleghe (1974) Israeli J. Med. Sci. 10. 1451. Rats were starved overnight given 15 mg/kg indomethacin subcutaneously and sacrificed 4 hours later. Stomachs were reflated with n.saline, cut along the greater curvature pinned out and scored for gastric damage by the following system:
Score 1-3--according to degree of erythema and slight haemorrhage.
Score 4-6--according to degree of mucosal erosion.
Score 7-9--according to depth of gastric damage.
Groups of 7 rats were used for each treatment and the test compound or vehicle were administered 30 minutes prior to giving the indomethacin. Dose of test compound was 100 mg/kg orally and control groups receiving vehicle only were set up simultaneously. Mean values for each treatment were obtained using the above scoring system and the Mann Witney test applied for significance of difference between the values obtained with the treatments.

For data set [7], the system named is histamine-induced bronchoconstriction. Nature of the data set: Inhibition of histamine induced bronchoconstriction in the anaesthetised, artificially respired guinea pig (Konzett-Rossler preparation). Type of data set: in vivo. The settings on record: Cavia porcellus, iv, read-out: ID50 against histamine-induced constriction. Here is the method: as §1

With `CCCCCCC(C)(O)CCN1C(=O)N(C)C(=O)C1CCCCCCC(=O)OC` (centres unmarked) [Compound 6], in data set [1], the ED50 came out at 1.5 µg/kg.

What is called NOAEL is the highest tested level that showed no adverse finding. What is called inhibition is the share of the control response that was lost under treatment. For `CCCCCCCC(C)(O)CCN1C(=O)N(C)C(=O)C1CCCCCCC(=O)O` (centres unmarked) [Compound 17], in data set [1], the ED50 is 8.5 µg/kg. In addition, the “prevention of fibrillation induced by chloroform” value in data set [2] is listed as “prevented fibrillation”. Also, the NOAEL was at least 100000 µg/kg in the data set “in vivo” (ip) and at least 300000 µg/kg in “in vivo” (po). For the same molecule, in data set [3], the “Aerosol route Activity (class symbol)” value is given as “A”. For the same molecule, at 100 µM the inhibition in data set [4] was 34%. In addition, the “inhibited gastric acid secretion over the dose range” value in data set [5] is 5000 to 10000 µg/kg. Moreover, in data set [6], the “Test Mean Score + S.E. of Mean (gastric damage score)” value (“Test Mean Score + S.E. of Mean” for short) was 0.43 ± 0.30.

By IC50 is commonly meant the concentration that gives 50% inhibition. In data set [4], `CCC(C)(O)CCN1C(=O)N(C)C(=O)C1CCCCCCC(=O)O` (centres unmarked) [Compound 18] gave an inhibition at 100 µM of 100%. In addition, the IC50 in data set [4] (in vitro, read-out: IC50 against collagen-induced aggregation) came to 7 µM.

For `CCCCCCC(O)CCN1C(=O)N(C)C(=O)C1CCCCCCC(=O)O` (centres unmarked) [Compound 24], in data set [1], the ED50 was determined as 6 µg/kg.

Consider `CN1C(=O)C(CCCCCCC(=O)O)N(CCC(C)(O)c2ccccc2)C1=O` (centres unmarked) [Compound 23], for which the ED50 in data set [1] came to 60 µg/kg.

On to `CCCCCCC(C)(O)CCN1C(=S)N(C)C(=O)C1CCCCCCC(=O)OC` (centres unmarked) [Compound 30, 1-(3'-hydroxy-3'-methyl-n-nonyl)-3-methyl-5-(6"-methoxycarbonyl-n-hexyl)-2-thiohydantoin], for which the “Test Mean Score + S.E. of Mean” value in data set [6] was 0.14 ± 0.14.

Regarding `CCCCCCCC(C)(O)CCN1C(=O)N(C)C(=O)C1CCCCCCC(=O)OC` (centres unmarked) [Compound 1, 1-(3'-hydroxy-3'-methyl-n-decyl)-3-methyl-5-(6"-methoxycarbonyl-n-hexyl)hydantoin], in data set [1], the ED50 is 4.5 µg/kg. Also, the “Aerosol route Activity (class symbol)” value in data set [3] is “A”.

For the molecule `COC(=O)CCCCCCC1C(=O)N(C)C(=O)N1CCC1(O)CCCCC1` (centres unmarked) [Compound 4], the ED50 in data set [1] was found to be 220 µg/kg.

Turning to `CCCCC(C)C(C)(O)CCN1C(=O)N(C)C(=O)C1CCCCCCC(=O)OC` (centres unmarked) [Compound 7], in data set [1], the ED50 amounted to 3.3 µg/kg.

`CCCCCCC(C)(O)CCN1C(=O)N(CC)C(=O)C1CCCCCCC(=O)O` (centres unmarked) [Compound 16, 1-(3'-hydroxy-3'-methyl-n-nonyl)-3-ethyl-5-(6"-carboxy-n-hexyl)hydantoin]: the ED50 in data set [1] was 5.8 µg/kg. In addition, the “Aerosol route Activity (class symbol)” value in data set [3] was “A”.

On to `CCCCCCC(C)(O)CCN1C(=O)N(C)C(=O)C1CCCCCCC(=O)O` (centres unmarked) [Compound 21, 1-(3'-hydroxy-3'-methyl-n-nonyl)-3-methyl-5-(6"-carboxy-n-hexyl)hydantoin], for which the ED50 in data set [1] came out at 0.6 µg/kg. For the same molecule, the ED50 in data set [7] was 0.6 µg/kg. Moreover, the NOAEL in the data set “in vivo” (po) was at least 900000 µg/kg. Moreover, in data set [3], the minimal effective dose came to 250 µg/kg, the “Aerosol route Activity (class symbol)” value is reported as “A” and the “Oral route Activity (class symbol)” value is “A”.

In the case of `CCCCCCC(C)(O)CCN1C(=S)N(C)C(=O)C1CCCCCCC(=O)OCC` (centres unmarked) [Compound 31], the ED50 in data set [1] came to 4.2 µg/kg. Further, the “Test Mean Score + S.E. of Mean” value in data set [6] was determined as 0.00 ± 0.00.

Consider `CCCCCCC(C)(O)CCN1C(=O)N(CC)C(=O)C1CCCCCCC(=O)OCC` (centres unmarked) [Compound 2, 1-(3'-hydroxy-3'-methyl-n-nonyl)-3-ethyl-5-(6"-ethoxycarbonyl-n-hexyl)hydantoin], for which the ED50 in data set [1] came out at 6.8 µg/kg. Also, in data set [3], the “Aerosol route Activity (class symbol)” value is “A”.

For `CN1C(=O)C(CCCCCCC(=O)O)N(CCC2(O)CCCCC2)C1=O` (centres unmarked) [Compound 19], in data set [1], the ED50 was over 220 µg/kg.

With `CCCCCCC(C)(O)CCN1C(=O)N(C)C(=O)C1CCCCCCC(=O)OCC` (centres unmarked) [Compound 3], the ED50 in data set [1] is 0.4 µg/kg. Besides, in data set [3], the minimal effective dose amounted to 250 µg/kg, the “Aerosol route Activity (class symbol)” value was “A” and the “Oral route Activity (class symbol)” value is reported as “A”.

For `CCCCCCC(C)(O)CCN1C(=O)N(C(C)(C)C)C(=O)C1CCCCCCC(=O)O` (centres unmarked) [Compound 25], the “Test Mean Score + S.E. of Mean” value in data set [6] is on record as 1.14 ± 0.74.

`CCCCC(C)C(C)(O)CCN1C(=O)N(C)C(=O)C1CCCCCCC(=O)O` (centres unmarked) [Compound 22]: the ED50 in data set [1] was found to be 3.2 µg/kg. The “Test Mean Score + S.E. of Mean” value in data set [6] turned out to be 0.00 ± 0.00.

Values taken from patent US4147796A, “1-(3-Hydroxyalk-1-yl)-5-(carboxyalkyl)hydantoin derivatives” (Beecham Group Limited, priority 1976, dated 1979).
